Test results published in patent US7579439B2, “Modulation of IL-2- and IL-15-mediated T cell responses” (Beth Israel Deaconess Medical Center, Inc., priority 2000, dated 2009).

Assays:
[1] = tested on: T cells at the second cell division in vivo; test: In vitro proliferation of sorted in vivo dividing T cells (3H-TdR uptake); type: cell-based, mice; conditions: IL-2 in doses as high as; IL-15 5 ng/ml; 48 hours
Procedure: CFSE-labeled lymphocytes were stimulated in vivo for three days and cell division was analyzed by examining the CFSE profile. T cells in the second cell division were sorted and cells (1×10^4) were cultured in vitro with IL-2 or IL-15 for two days. Cellular proliferation was determined by ^3H-TdR uptake. The results are presented as the mean CPM±SD of triplicate assays.
Cell sorting and in vitro proliferation assays were carried out as follows. CFSE-labeled cells were prepared from irradiated allogeneic hosts three days after intravenous injection of labeled cells, and cell proliferation in vivo was identified by analysis of the cells' CFSE profile. The second cell division was selected, gated, and sorted with FACS Vantage™. Cells (1×10^4/ml) were resuspended in RPMI 1640 medium with 10% FCS and 1% penicillin and streptomycin, and stimulated with IL-2 (40 μ/ml to 500 μ/ml) or IL-15 (5 ng/ml) for 48 hours. Cells were pulsed with 1 mCi 3H-TdR (Amersham, Boston, Mass.) for 16 hours and ^3H-TdR uptake was determined by scintillation counting (Beckman Instrument, Columbia, Md.).

[2] = tested on: IL-2Rγ+ BAF-BO3 cell transfectants that express the IL-2Rβ subunit; test: BAF-BO3 cell proliferation assay (IL-2Rβ transfectants); type: cell-based
Procedure: (§1) In the next series of experiments, the FLAG-HMK-IL-15 fusion protein was tested to determine whether it could function as a biologically active growth factor.

[3] = tested on: IL-15 binding sites on PHA-activated human PBMCs; test: Cytofluorometric analysis of binding to PBMCs (anti-FLAG biotinylated Ab, streptavidin-RED670); conditions: flow cytometry
Procedure: The FLAG-HMK-IL-15 fusion protein, biotinylated anti-FLAG antibody, and streptavidin-RED670 were employed to detect expression of IL-15 binding sites on human PBMCs by cytofluorometric analysis. The PBMCs tested were either freshly isolated or PHA-activated. These cells were washed and incubated with either medium alone or FLAG-HMK-IL-15 followed by anti-FLAG biotinylated Ab and streptavidin-RED670. The stained cells were analyzed by flow cytometry. […] Both activated CD4^+ and CD8^+ cells express IL-15α chains. Activation induced IL-15Rα chains were also detected on CD14^+ (monocyte/macrophage) cells and CD16^+ (natural killer) cells.
PHA-activated PBMCs were washed and incubated with medium alone, or with the FLAG-HMK-IL-15 double mutant. The cells were then incubated with an anti-FLAG biotinylated antibody and stained with streptavidin conjugated to RED670. The stained cells were analyzed by flow cytometry.

[4] = target: T1, human IL-15Rα subunit (Homo sapiens, UniProt Q13261); test: Cross-linking of [32P]-FLAG-HMK-IL-15 to PHA-activated PBMCs (DSS, SDS-PAGE autoradiography); type: binding; conditions: cross-linked with DSS; band lost with molar excess of hIL-15
T1 construct: endogenous in cells
Procedure: The purified FLAG-HMK-IL-15 fusion protein was tested to determine whether it interacts with cell surface IL-15 receptors. As described above, [^32P]-FLAG-HMK-IL-15 was added to cultures of PBMCs that were activated by a mitogen, PHA. In order to permanently bind interactive proteins to one another, the chemical cross-linker disuccinimidyl suberate (DSS) was added. The cells were washed, lysed, centrifuged, and detergent-soluble proteins were separated by SDS-PAGE. […] The identity of this band as the IL-15Rα subunit was confirmed by cross-linking experiments conducted in the presence of a molar excess of hIL-15.

[5] = tested on: PHA-activated human PBMCs; test: [3H]-TdR incorporation assay, PHA-activated PBMCs; type: cell-based
Procedure: as §1

[6] = tested on: parental BAF-BO3 cells transfected with a vector lacking IL-2Rβ chain sequences; test: BAF-BO3 cell proliferation assay (parental cells, vector lacking IL-2Rβ); type: cell-based; conditions: parental BAF-BO3 cells lacking IL-2Rβ
Procedure: In the next series of experiments, the FLAG-HMK-IL-15 fusion protein was tested to determine whether it could function as a biologically active growth factor. […] Thus, FLAG-HMK-IL-15 is a biologically active growth factor that requires expression of IL-2Rβ chains upon target cells in order to stimulate cellular proliferation.

[7] = tested on: leukemic cell lines MOLT-14, YT, HuT-102, 2A and 2B; test: FACS analysis of leukemic cell lines stained with FLAG-HMK-IL-15; type: binding; conditions: flow cytometry
Procedure: The cells treated were obtained from the leukemic cell lines MOLT-14, YT, HuT-102, and from cell lines currently being established at Beth Israel Hospital (Boston, Mass.), and named 2A and 2B. The cultured cells were washed and incubated with either medium alone or with medium containing the FLAG-HMK-IL-15 wild-type polypeptide. The cells were then incubated with the biotinylated anti-FLAG antibody and stained with RED670-conjugated streptavidin. The stained cells were analyzed by flow cytometry.

T1 sequence (Q13261 31-267): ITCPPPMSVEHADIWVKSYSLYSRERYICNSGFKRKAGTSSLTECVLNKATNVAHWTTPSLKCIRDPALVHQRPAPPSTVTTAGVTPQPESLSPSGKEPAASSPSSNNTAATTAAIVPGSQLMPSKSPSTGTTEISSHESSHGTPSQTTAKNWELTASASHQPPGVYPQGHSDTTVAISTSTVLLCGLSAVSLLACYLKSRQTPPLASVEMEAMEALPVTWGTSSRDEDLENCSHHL

For IL-15: recombinant human IL-15, the “T cell proliferation by 3H-TdR uptake” value [1] was “stimulated vigorous cell proliferation”.
For “FLAG-HMK-IL-15 double mutant: human IL-15 protein bearing a double mutation (Q149D; Q156D), FLAG-HMK tagged”, the “inhibition of BAF-BO3 proliferation” value ([2]; 30 μl versus 20 μL of approximately 50 μg/ml) was “inhibit BAF-BO3 proliferation in a dose-dependent manner” and the “binding to PHA activated PBMCs” value [3] was “bind PHA activated human PBMCs was demonstrated”.
“FLAG-HMK-IL-15: IL-15 polypeptide having an N-terminus covalently bound to the 18 amino acid FLAG-HMK-sequence” was tested, and the “binding to the IL-15Rα subunit on the surface of mitogen-activated PBMCs” value [4] was “site specific binding”, the “stimulation of cell proliferation” value [5] was “proliferate in response to” and the stimulation of proliferation ([2]; BAF-BO3 transfectants expressing IL-2Rβ) was “stimulates proliferation”. For the same substance, the stimulation of proliferation [6] was “does not, however, stimulate the proliferation”, the “binding to PHA activated PBMCs” value [3] was “blocked by a molar excess of rIL-15” and the “binding to leukemia cells” value [7] was “bind leukemia cells was shown”.
